The source of these data is ChEMBL document CHEMBL1201862, “PubChem BioAssay data set” (2004).

Test systems include 786-0; A549; ACHN; DLD-1; EKVX; HL-60; HT-29; IGROV-1; K562; MOLT-4; NCI-H226; NCI-H23; NCI-H460; SK-MEL-2; SN12C; SNB-75; SW-620; SK-MEL-28.
What all share (assay): NCI-60 cell line screen, 48 h

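In this assay, cells in 96-well plates receive the compound at five concentrations for 48 hours. Endpoints are linearly interpolated between the surrounding concentrations. At the GI50, growth is halved.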 Calls of active or inactive are those of the source. Rule as the data show it: active = GI50 up to about 1.1 µM and inactive = higher.

Take `CN1CCN(C)C12C=CC=CC21CC1`: the GI50 in the test with 786-0, in the test on A549, with ACHN, with DLD-1, in the test with EKVX and in the test on HL-60 was > 100 µM (inactive) throughout. The GI50 in the test on HT-29, with IGROV-1, in the test with K562, in the test on MOLT-4, in the test with NCI-H226 and with NCI-H23 was > 100 µM (inactive) throughout. For the same compound, the GI50 in the test on NCI-H460, with SK-MEL-2, with SN12C, with SNB-75 and in the test with SW-620 was > 100 µM (inactive) throughout.

As for `CCOc1ccc(O)cc1[P+](c1ccccc1)(c1ccccc1)c1ccccc1`, the GI50 in the test with 786-0 is 7.24 µM (inactive); in the test on A549, 4.69 µM (inactive); in the test on ACHN, 16.2 µM (inactive); in the test with DLD-1, 4.14 µM (inactive); with EKVX it was 11.5 µM (inactive); in the test on HL-60 it was 0.501 µM (active). Further, the GI50 in the test with HT-29 was 2.85 µM (inactive); in the test on K562, 1.49 µM (inactive); in the test on NCI-H226 it was 1.64 µM (inactive); in the test with NCI-H23, 1.67 µM (inactive); in the test on NCI-H460, 3.24 µM (inactive); in the test with SK-MEL-28, 4.47 µM (inactive). The GI50 in the test on SN12C is 3.13 µM (inactive); in the test with SNB-75 it was 4.5 µM (inactive).

`C/C(=N\N=C(\N)S)c1ccc(Oc2ccccc2)cc1`: the GI50 in the test on 786-0 is 4.05 µM (inactive); in the test on A549, 18.7 µM (inactive); in the test on ACHN, 10.3 µM (inactive); with DLD-1, 3.44 µM (inactive); in the test with EKVX, 12.2 µM (inactive); with HL-60, 4.06 µM (inactive). Also, the GI50 in the test on IGROV-1 is 2.59 µM (inactive); in the test with K562, 4.83 µM (inactive); in the test on MOLT-4 it was 0.971 µM (active); with NCI-H23, 11.8 µM (inactive); in the test with NCI-H460, 17.3 µM (inactive); with SK-MEL-28 it was 11.7 µM (inactive). Further, the GI50 in the test on SN12C was 11.4 µM (inactive); in the test on SNB-75, 7.38 µM (inactive); in the test on SW-620, 16.3 µM (inactive).

Consider `CN(C)c1nc(N(C)C)nc(N(C)CN(C)c2nc(N(C)C)nc(N(C)C)n2)n1`, for which the GI50 with 786-0 was 14.9 µM (inactive); in the test on A549, > 100 µM (inactive); in the test with ACHN it was > 100 µM (inactive); with DLD-1, > 100 µM (inactive); in the test with EKVX, > 100 µM (inactive); in the test on HL-60, > 100 µM (inactive). The GI50 in the test on HT-29, in the test on IGROV-1, with K562, in the test on MOLT-4, with NCI-H23 and in the test on NCI-H460 was > 100 µM (inactive) in each case. Moreover, the GI50 in the test on SK-MEL-28, with SK-MEL-2, with SN12C, in the test on SNB-75 and with SW-620 was > 100 µM (inactive) in each case.

On to `CCOC(=O)c1c[nH]c2c(ccc3ncccc32)c1=O`, for which the GI50 with 786-0, in the test on A549, in the test with ACHN, in the test on DLD-1, in the test on EKVX and with HL-60 was > 100 µM (inactive) each time. For the same compound, the GI50 in the test with HT-29, in the test with IGROV-1, in the test with K562, in the test on MOLT-4, in the test on NCI-H23 and in the test on NCI-H460 was > 100 µM (inactive) in each case. For the same compound, the GI50 with SK-MEL-28, in the test with SK-MEL-2, with SN12C, in the test with SNB-75 and with SW-620 was > 100 µM (inactive) in each case.

For the compound `COc1cc(C2c3cc4c(cc3[C@@H](NCCN3CCCCC3)C3COC(=O)[C@H]23)OCO4)cc(OC)c1O` (some centres not stated), the GI50 in the test with 786-0 is 0.179 µM (active); in the test on A549 it was 0.0656 µM (active); with ACHN it was 0.486 µM (active); with DLD-1, 1.58 µM (inactive); in the test with EKVX, 1.55 µM (inactive); with HL-60 it was 0.0426 µM (active). The GI50 was 1.19 µM (inactive) in the test with HT-29; 1.33 µM (inactive) in the test on IGROV-1; 0.615 µM (active) in the test with K562; 0.0164 µM (active) in the test on MOLT-4; 0.0387 µM (active) with NCI-H226; 0.206 µM (active) in the test on NCI-H23. Besides, the GI50 in the test with SK-MEL-28 is 2.11 µM (inactive); in the test with SK-MEL-2, 2.07 µM (inactive); with SN12C, 1.91 µM (inactive); in the test with SW-620, 1.04 µM (active).

For `CCN(CC)c1ccc(C2N3CCCCC3[C@@H]3c4[nH]c5ccccc5c4CCN23)cc1` (some centres not stated), the GI50 is 37.8 µM (inactive) in the test with 786-0; 49.1 µM (inactive) in the test on A549; 27 µM (inactive) in the test on ACHN; 26 µM (inactive) in the test on DLD-1; 74.8 µM (inactive) in the test on EKVX; 7.43 µM (inactive) in the test with HL-60. The GI50 in the test with HT-29 was 16.1 µM (inactive); in the test with IGROV-1, 42.8 µM (inactive); with K562, 15.2 µM (inactive); with MOLT-4, 25.5 µM (inactive); in the test with NCI-H23, 34.9 µM (inactive); in the test on NCI-H460 it was 22.3 µM (inactive). Besides, the GI50 in the test on SK-MEL-28 was 25.9 µM (inactive); in the test with SK-MEL-2 it was > 10 µM (inactive); in the test with SN12C it was 19.7 µM (inactive); in the test with SNB-75, 6.11 µM (inactive); in the test on SW-620, 33.5 µM (inactive).

In the case of `COc1cc2c3c(c1OCc1ccccc1)NCCC3NCC2` (configuration not stated), the GI50 in the test on 786-0, in the test on A549, in the test on DLD-1, with EKVX, in the test on HL-60 and in the test with HT-29 was > 100 µM (inactive) each time. Further, the GI50 with IGROV-1, in the test on K562, with MOLT-4, in the test with NCI-H226, with NCI-H23 and with NCI-H460 was > 100 µM (inactive) each time. In addition, the values for the GI50 with SN12C, with SNB-75 and in the test with SW-620 were > 100 µM (inactive), 43.7 µM (inactive) and > 100 µM (inactive), respectively.

Take `Cc1c(O)c(=O)ccn1CCO`: the GI50 in the test with 786-0, with A549, in the test on ACHN, in the test on DLD-1, with EKVX and with HL-60 was > 100 µM (inactive) in each case. Moreover, the GI50 with HT-29, in the test on K562, in the test with MOLT-4, in the test with NCI-H226, in the test on NCI-H460 and in the test on SK-MEL-28 was > 100 µM (inactive) throughout. In addition, the GI50 in the test on SK-MEL-2, in the test with SN12C, in the test with SNB-75 and in the test with SW-620 was > 100 µM (inactive) in each case.

`CC1CN1P1(N2CC2C)=NP(N2CC2C)(N2CC2C)=NP(N2CC2C)(N2CC2C)=N1` (configuration not stated): the GI50 in the test with 786-0, in the test with A549, with ACHN, in the test on DLD-1, in the test with EKVX and with HL-60 was > 50 µM (inactive) throughout. Moreover, the GI50 in the test on HT-29, in the test on IGROV-1, in the test with K562, with MOLT-4, in the test with NCI-H226 and in the test with NCI-H23 was > 50 µM (inactive) each time. The GI50 in the test on NCI-H460, in the test on SK-MEL-28, with SN12C, with SNB-75 and with SW-620 was > 50 µM (inactive) in each case.

`COc1ccc(/C(Cl)=C/c2cc(OC)ccc2OC)cc1`: the GI50 with 786-0 was 81.8 µM (inactive); in the test with A549, 75.2 µM (inactive); in the test on ACHN it was 65.8 µM (inactive); in the test on DLD-1, 79.4 µM (inactive); in the test with EKVX, > 100 µM (inactive); in the test on HL-60, 28.4 µM (inactive). The GI50 in the test with HT-29 is 62.2 µM (inactive); in the test with IGROV-1 it was > 100 µM (inactive); in the test on K562, 47 µM (inactive); in the test with MOLT-4, 49.9 µM (inactive); in the test with NCI-H226, 44.7 µM (inactive); in the test with NCI-H23, 53 µM (inactive). Besides, the GI50 was 79.6 µM (inactive) in the test on SK-MEL-28, 56.4 µM (inactive) in the test on SN12C, 40.1 µM (inactive) in the test on SNB-75 and 48.1 µM (inactive) in the test on SW-620.

`O=C1CCC(=O)C12CCc1cccc(O)c12`: the GI50 with 786-0, in the test with A549, in the test on ACHN, with DLD-1, in the test with EKVX and with HL-60 was > 100 µM (inactive) each time. For the same compound, the GI50 in the test on HT-29, with IGROV-1, in the test with K562, in the test on NCI-H23, in the test with NCI-H460 and in the test on SK-MEL-28 was > 100 µM (inactive) throughout. Moreover, the GI50 was > 100 µM (inactive) in the test on SN12C, 39 µM (inactive) in the test with SNB-75 and > 100 µM (inactive) with SW-620.
